The source made the active and inactive calls. The rule behind the calls is not given here.
Assay: Quorum luxo inducers, light production, v cholerae bh1651 luxod47e, confirmatory dose response (AID 624254)
Settings: V. cholerae BH1651 luxOD47E, luciferase light induction, 6 h; at 50 µM (top of the series)

| SMILES | activation (light increase) |
| --- | --- |
| Cn1c(CCNC(=O)c2ccco2)nc2cc(NC(=O)NC3CCCCC3)ccc21 | inactive |
| COc1ccc(OCc2cn3c(C)cc(C)nc3n2)cc1 | inactive |
| CCC(=O)NCCc1nc(-c2ccccc2)no1 | inactive |
| O=C(CCc1nc(-c2ccccc2)no1)N1CCCC1 | inactive |
| Cc1ccc(Oc2nccc(-c3ccc(Cl)cc3)n2)cc1 | inactive |
| Cc1cc(NC2CCCCC2)nc(-c2ccccc2O)n1 | inactive |
| CCC(C)NS(=O)(=O)c1ccc(S(=O)(=O)Nc2cc3c(cc2C(C)=O)OCO3)cc1 (stereo not drawn) | inactive |
| CCCOc1ccc(-c2nc(C#N)c(N3CCN(CC)CC3)o2)cc1 | inactive |
| CCc1cc(C(=O)N2CCN(C(=O)c3ccccc3)CC2)sc1C | inactive |
| C[C@H](CO)N1C[C@H](C)[C@@H](CN(C)S(=O)(=O)c2ccc(F)cc2)Oc2c(NC(=O)Nc3ccc4c(c3)OCO4)cccc2C1=O | inactive |
| CCOC(=O)Nc1ccc(S(=O)(=O)Nc2cc(C)nc(C)n2)cc1 | inactive |
| Cc1cc(C)c(S(C)(=O)=O)c(Oc2ccc(C(C)(C)C)cc2)n1 | inactive |
| Cn1cnc(S(=O)(=O)Nc2ccc(F)cc2)c1 | inactive |
| NS(=O)(=O)c1cc(C(=O)OCC(=O)NC2CCCCCCC2)ccc1Cl | inactive |
| Cc1ccc(NS(=O)(=O)c2cn(C)cn2)cc1 | inactive |
| Cc1noc(C)c1NC(=O)Nc1cccc2c1O[C@H](CN(C)S(=O)(=O)c1cccs1)[C@@H](C)CN([C@H](C)CO)C2=O | inactive |
| NC(=O)c1cc(Br)cc(C2CCCCC2)c1O | inactive |
| CCCCc1cc2c(cc1NC(=O)CN1CCCCC1)OCCO2 | inactive |
| Cc1ccc(Oc2ccc(S(=O)(=O)N3CCOCC3)cc2C(N)=O)c(-n2nc3ccccc3n2)c1 | inactive |
| Cc1cc(C)n2cc(COc3ccc4ccccc4c3)nc2n1 | inactive |
| CCCNC(=O)COC(=O)/C=C/c1ccc(C)o1 | inactive |
| COc1ccc(CNC(=O)CSc2nc3c(oc4ccccc43)c(=O)n2CC2CCCO2)cc1 (stereo not drawn) | inactive |
| CCOC(=O)c1c(NC(=O)c2cccs2)sc(C)c1CC | inactive |
| COC(=O)c1sc2ncccc2c1OCc1c(Cl)cccc1Cl | inactive |
| O=C(Oc1nsnc1N1CCCCC1)N1CCOCC1 | inactive |

| SMILES | activation (light increase) |
| --- | --- |
| COc1ccc(C(CNC(=O)c2ccc(-c3cccc(C(F)(F)F)c3)o2)N2CCOCC2)cc1 (stereo not drawn) | inactive |
| O=C(NCc1ccco1)c1cc2n(n1)C(C(F)(F)F)CC(c1ccc(Cl)c(Cl)c1)N2 (stereo not drawn) | inactive |
| O=c1c2cc(N3CCOCC3)ccc2[nH]c(=S)n1CC1CCCO1 (stereo not drawn) | inactive |
| COc1ccc(C(=O)COC(=O)c2cccc(-n3cnnn3)c2)c(OC)c1 | inactive |
| COc1ccccc1NS(=O)(=O)c1cccc(C(=O)NCC(c2ccco2)N2CCCCC2)c1 (stereo not drawn) | inactive |
| COc1ccc(CNC(=O)c2ccc(Cl)c(S(=O)(=O)N3CCOCC3)c2)cc1OC | inactive |
| Cc1cnc(C(=O)OCC(=O)NC(=O)NC(C)C)cn1 | inactive |
| CCc1ccc(S(=O)(=O)Nc2ccc(Br)cn2)cc1 | inactive |
| Cc1cccc(N(CC(N)=O)C2SC(=O)N(c3ccccc3)C2=O)c1 (stereo not drawn) | inactive |
| CN(C)CC(C)(C)CNC(=O)c1cc(=O)c2ccccc2o1 | inactive |
| CCN(CC1COc2ccccc2O1)C(=S)Nc1ccccc1 (stereo not drawn) | inactive |
| COc1ccc(Cl)cc1NC(=O)CN1CCc2ccccc2C1 | inactive |
| COCCN(C(=O)C1CCC1)c1nnc(-c2cccnc2)s1 | inactive |
| OCCN1CCN(CC(O)COc2ccc(Cl)cc2)CC1 (stereo not drawn) | inactive |
| O=S(=O)(Nc1ccccn1)c1ccccc1 | inactive |
| c1ccc(-c2ccc(CN3Cc4ccccc4-n4nncc4C3)cc2)cc1 | inactive |
| Cc1ccc(C)c(C(=O)CN2C(=O)NC3(CCCCCC3)C2=O)c1 | inactive |
| Cc1ccc(CN(Cc2cc3cc(C)ccc3[nH]c2=O)C(=O)N2CCOCC2)cc1 | inactive |
| CC1CCN(c2ccccc2NC(=O)c2cc3ccccc3o2)CC1 | inactive |
| Oc1ccc(-c2cn3c(n2)SCC3)cc1 | inactive |
| Cn1c(=O)oc2cc(S(=O)(=O)N3CCN(c4ccc(F)cc4)CC3)ccc21 | inactive |
| NNC(=O)c1nnn(-c2nonc2N)c1CN1CCCC1 | inactive |
| Cc1ccccc1NC(=O)Cc1nc(COC(=O)c2ccccn2)cs1 | inactive |
| O=C(Cc1ccc2c(c1)CCCC2)Nc1ccccc1Br | inactive |
| COc1cccc(Nc2nc(NCCO)c3ccccc3n2)c1 | inactive |

| SMILES | activation (light increase) |
| --- | --- |
| O=c1c2c3c(sc2ncn1Cc1ccc(F)cc1)CCC3 | inactive |
| Cc1cc(COc2ccccc2O)on1 | inactive |
| COc1ccc(OC)c(NC(=O)COC(=O)c2cc3c(s2)CCC3)c1 | inactive |
| O=C(Nc1nnc(C2CC2)s1)c1cccc(S(=O)(=O)N2CCc3ccccc32)c1 | inactive |
| Cn1cccc1C(=O)OCc1cc(-c2ccco2)on1 | inactive |
| COc1ccc2[nH]c(=O)c(CN(C(=O)c3cccnc3)c3ccc(C)cc3)cc2c1 | inactive |
| Cc1nnc(NC(=O)c2cccc(S(=O)(=O)N3CCc4ccccc43)c2)s1 | inactive |
| O=C(Cc1ccc2c(c1)CCCC2)Nc1ccccc1Cl | inactive |
| COc1ccc(-c2ccc(-c3nnc(Cc4ccc(OC)c(OC)c4)o3)cc2)cc1 | inactive |
| CC(=O)c1ccc(Oc2cc(C)nc(NCc3ccccc3)n2)cc1 | inactive |
| COc1ccc(Cl)cc1NC(=O)COC(=O)c1ccc(C)o1 | inactive |
| COc1ccc(-c2nnc3c4ccccc4c(C)nn23)cc1 | inactive |
| COC(=O)Cn1nc(-c2ccccc2)c2ccccc21 | inactive |
| C[C@@H]1CN([C@H](C)CO)C(=O)c2cccc(NC(=O)C3CC3)c2O[C@@H]1CN(C)S(=O)(=O)c1cccs1 | inactive |
| C[C@H](NC(=O)c1ccco1)C(=O)Nc1ccc(S(=O)(=O)N2CCCC2)cc1 | inactive |
| CCc1ccc(C(=O)Nc2ccc(Br)cn2)cc1 | inactive |
| COc1ccc(-n2c(COc3ccccc3)nnc2SCc2ccc(C#N)cc2)cc1 | inactive |
| Cc1c(C(=O)c2ccc(F)cc2F)c2ccccn2c1CCc1ccccn1 | inactive |
| CS(=O)(=O)NNC(=O)c1sccc1OCc1ncc(C(F)(F)F)cc1Cl | inactive |
| COC(=O)c1cc(COC(=O)c2ccc(OC)c(S(=O)(=O)N3CCCC3)c2)oc1C | inactive |
| Nc1nnc(-c2ccc(Cl)cc2Cl)s1 | inactive |
| Cc1ccccc1OC(C)c1nc(-c2ccccc2)no1 (stereo not drawn) | inactive |
| CC1(NC(=O)C23CC4CC(CC(C4)C2)C3)CCS(=O)(=O)C1 (stereo not drawn) | inactive |
| O=C(CNC(=O)c1ccncc1)Nc1ccc(F)c(F)c1 | inactive |
| Cc1ccccc1NS(=O)(=O)c1cn(C)cn1 | inactive |

| SMILES | activation (light increase) |
| --- | --- |
| COc1cc(C(=O)Nc2ccc(NC(=O)C(C)C)nc2)cc(OC)c1OC | inactive |
| Cc1ccc(S(=O)(=O)N(C)c2ccc(OCC(=O)N3CCCCC3)cc2)cc1 | inactive |
| C[C@@H]1CN([C@@H](C)CO)C(=O)c2cccc(NC(=O)Nc3ccc4c(c3)OCO4)c2O[C@@H]1CN(C)S(=O)(=O)c1ccccc1 | inactive |
| CCOc1ccc(Nc2nc3c(c(=O)[nH]2)CCCC3)cc1 | inactive |
| CCOCCCNC(=O)C(NC(=O)c1cnccn1)c1ccc(C)cc1 (stereo not drawn) | inactive |
| Cc1cccc(NC(=O)CS(=O)(=O)c2cn(C)c3ccccc23)c1C | inactive |
| CN(C)C(=O)c1ccccc1NS(=O)(=O)c1cn(C)cn1 | inactive |
| O=C(Nc1nnc(-c2ccc(Br)cc2)o1)c1cccc(N2C(=O)CCC2=O)c1 | inactive |
| CCC1(CC)NC(=O)N(CC(=O)OCC(=O)NC(=O)c2ccccc2OC)C1=O | inactive |
| Cc1ccc(OCC(=O)NC2CCS(=O)(=O)C2)c([N+](=O)[O-])n1 (stereo not drawn) | inactive |
| CC(C)CCN1CC(C(=O)N2CCN(c3ccc(F)cc3)CC2)CC1=O (stereo not drawn) | inactive |
| COc1ccc(N(CC(=O)NC2CCCCC2)C(=O)CNC(=O)c2ccco2)c(OC)c1 | inactive |
| CC(=O)Nc1ccc2nc(-c3cccnc3)[nH]c2c1 | inactive |
| O=C(COC(=O)/C=C/c1ccc(OC(F)F)cc1)NC1CCCCCC1 | inactive |
| Cc1cccc(-c2noc(-c3ccccc3C(=O)NCC3CCCO3)n2)c1 (stereo not drawn) | inactive |
| C[C@@H]1CN([C@H](C)CO)C(=O)c2cccc(NC(=O)Nc3ccc4c(c3)OCO4)c2O[C@@H]1CN(C)S(=O)(=O)c1ccccc1 | inactive |
| COC(=O)[C@H]1C[C@H](C(=O)O)[C@@H](C)C1(C)C | inactive |
| C[C@H](CO)N1C[C@H](C)[C@H](CN(C)S(=O)(=O)c2cccs2)Oc2c(NC(=O)C3CC3)cccc2C1=O | inactive |
| CCCCOCC(O)CN1CCN(C(C)=O)CC1 (stereo not drawn) | inactive |
| Cn1cnc(S(=O)(=O)Nc2ccc(-c3ccccc3)cc2)c1 | inactive |
| O=C(NCCN1CCOCC1)c1cccc(NS(=O)(=O)c2ccc(Br)cc2)c1 | inactive |
| COC(=O)Nc1ccc(S(=O)(=O)NCCO)cc1 | inactive |
| CN(C)C(=O)CCSc1nnc(-c2ccco2)o1 | inactive |

Reference: PubChem BioAssay AID624254 (Broad Institute, 2012)
